Values quoted from earlier work, collected in patent US4486419A, “5,2',3',4',4",6"-Hexadeoxykanamycin and its 1-N-acylated derivative” (Zaidan Hojin Biseibutsu Kagaku Kenkyu Kai, priority 1982, dated 1984).

Test system: dibekacin-resistant bacteria
Settings: background, U.S. Pat. No. 4,107,424; cited from earlier work

NCC[C@H](O)C(=O)N[C@@H]1C[C@H](N)[C@@H](O[C@H]2O[C@H](CN)CC[C@H]2N)[C@H](O)[C@H]1O[C@H]1O[C@H](CO)[C@@H](O)[C@H](N)[C@H]1O [Habekacin, 1-N-[(S)-4-amino-2-hydroxybutyryl] dibekacin]
activity against dibekacin-resistant bacteria: active against dibekacin-resistant bacteria
